According to PubChem BioAssay AID256 (DTP/NCI, 2004):
Where “and” joins values, the source holds several entries; their conditions need not be identical. Equal entries are not always repeated. Toxic doses and inconclusive results are not listed. The calls were made as follows: active = survival T/C of 150% or more; inactive = T/C below 125% in these data.

Tested on: CD2F1 mice, L1210 leukemia ip, survival T/C
Assay: NCI In Vivo Anticancer Drug Screen. Data for tumor model L1210 Leukemia (intraperitoneal) in CD2F1 (CDF1) mice
Conditions: higher = longer survival
Procedure, shortened: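 Compound-dosed mice with transplantable tumor versus matched vehicle controls; endpoint ratio T/C reported.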

[1] = endpoint: mean survival time, dose: 100.0 mg/kg/injection, schedule: Q01DX009 (ip), vehicle: saline with Tween-80
[2] = endpoint: mean survival time, dose: 100.0 mg/kg/injection, schedule: Q04DX003 (ip), vehicle: saline with Tween-80
[3] = endpoint: mean survival time, dose: 200.0 mg/kg/injection, schedule: Q01DX009 (ip), vehicle: saline with Tween-80
[4] = endpoint: mean survival time, dose: 200.0 mg/kg/injection, schedule: Q04DX003 (ip), vehicle: saline with Tween-80
[5] = endpoint: mean survival time, dose: 400.0 mg/kg/injection, schedule: Q01DX009 (ip), vehicle: saline with Tween-80
[6] = endpoint: mean survival time, dose: 400.0 mg/kg/injection, schedule: Q04DX003 (ip), vehicle: saline with Tween-80
[7] = endpoint: mean survival time, dose: 100.0 mg/kg/injection, schedule: Q04DX002 (ip), vehicle: saline with Tween-80
[8] = endpoint: mean survival time, dose: 200.0 mg/kg/injection, schedule: Q04DX002 (ip), vehicle: saline with Tween-80
[9] = endpoint: mean survival time, dose: 400.0 mg/kg/injection, schedule: Q04DX002 (ip), vehicle: saline with Tween-80
[10] = endpoint: mean survival time, dose: 50.0 mg/kg/injection, schedule: Q01DX009 (ip), vehicle: saline with Tween-80
[11] = endpoint: mean survival time, dose: 100.0 mg/kg/injection, schedule: Q01DX001 (ip), vehicle: saline with Tween-80
[12] = endpoint: mean survival time, dose: 200.0 mg/kg/injection, schedule: Q01DX001 (ip), vehicle: saline with Tween-80
[13] = endpoint: mean survival time, dose: 100.0 mg/kg/injection, schedule: Q01DX001 (ip), vehicle: other
[14] = endpoint: mean survival time, dose: 200.0 mg/kg/injection, schedule: Q01DX001 (ip), vehicle: other
[15] = endpoint: mean survival time, dose: 400.0 mg/kg/injection, schedule: Q01DX001 (ip), vehicle: other

Measured: T/C

COC(=O)C(CCCCN)NS(=O)(=O)c1ccccc1 (stereo unspecified)
inactive: [1] 96 % of control | [2] 109 % of control | [3] 100 % of control | [4] 91 % of control | [5] 96 % of control | [6] 103 % of control

COc1ccc(OC)c(NC(=O)Nc2ccc(S(N)(=O)=O)cc2)c1
inactive: [1] 98 % of control | [3] 93 % of control | [5] 96 % of control

C/C=C\C[P+](c1ccccc1)(c1ccccc1)c1ccccc1
inactive: endpoint: mean survival time, dose: 5.0 mg/kg/injection, schedule: Q01DX001 (ip), vehicle: saline with Tween-80 101 % of control | endpoint: mean survival time, dose: 5.0 mg/kg/injection, schedule: Q01DX009 (ip), vehicle: saline with Tween-80 102 % of control | endpoint: mean survival time, dose: 10.0 mg/kg/injection, schedule: Q01DX001 (ip), vehicle: saline with Tween-80 104 % of control | endpoint: mean survival time, dose: 10.0 mg/kg/injection, schedule: Q01DX009 (ip), vehicle: saline with Tween-80 102 % of control | endpoint: mean survival time, dose: 20.0 mg/kg/injection, schedule: Q01DX001 (ip), vehicle: saline with Tween-80 104 % of control | endpoint: mean survival time, dose: 20.0 mg/kg/injection, schedule: Q01DX009 (ip), vehicle: saline with Tween-80 122 % of control

CCCc1cc(=O)[nH]c(SCC(=O)O)n1
inactive: [7] 98 % of control | [8] 98 % of control | [9] 92 % of control

O=C(O)CNC(=O)COc1ccccc1
inactive: [1] 101 % of control | [2] 101 % of control | [3] 88 % of control | [4] 93 % of control | [5] 90 % of control | [6] 101 % of control

O=S(=O)(Cl)c1cccc2c(S(=O)(=O)Cl)cccc12
inactive: endpoint: mean survival time, dose: 20.0 mg/kg/injection, schedule: Q04DX003 (ip), vehicle: Klucel (hydroxypropylcellulose) (HPC) 102 % of control | endpoint: mean survival time, dose: 40.0 mg/kg/injection, schedule: Q04DX003 (ip), vehicle: Klucel (hydroxypropylcellulose) (HPC) 104 % of control | endpoint: mean survival time, dose: 80.0 mg/kg/injection, schedule: Q04DX003 (ip), vehicle: Klucel (hydroxypropylcellulose) (HPC) 95 % of control | endpoint: mean survival time, dose: 200.0 mg/kg/injection, schedule: Q04DX003 (ip), vehicle: Klucel (hydroxypropylcellulose) (HPC) 109 % of control | endpoint: mean survival time, dose: 400.0 mg/kg/injection, schedule: Q04DX003 (ip), vehicle: Klucel (hydroxypropylcellulose) (HPC) 122 % of control

O=S(=O)(Oc1ccccc1)c1c(F)c(F)c(F)c(F)c1F
inactive: endpoint: mean survival time, dose: 25.0 mg/kg/injection, schedule: Q01DX009 (ip), vehicle: saline with Tween-80 94 % of control | [10] 94 % of control | [1] 90 % of control | [2] 95 % of control

CCOC(=O)c1c(C)c2c(n1C)CCCC2=O
inactive: [7] 93 % of control | [8] 89 % of control | [9] 86 % of control

O=C(c1ccccc1)c1ccc([N+](=O)[O-])cc1
inactive: endpoint: mean survival time, dose: 100.0 mg/kg/injection, schedule: Q04DX003 (ip), vehicle: saline sonified 92 % of control | endpoint: mean survival time, dose: 200.0 mg/kg/injection, schedule: Q04DX003 (ip), vehicle: saline sonified 95 % of control | endpoint: mean survival time, dose: 400.0 mg/kg/injection, schedule: Q04DX003 (ip), vehicle: saline sonified 100 % of control

CC(=O)c1ccc[n+](Cc2c(Cl)cccc2Cl)c1
inactive: endpoint: mean survival time, dose: 12.5 mg/kg/injection, schedule: Q04DX003 (ip), vehicle: saline 107 % of control | endpoint: mean survival time, dose: 25.0 mg/kg/injection, schedule: Q04DX003 (ip), vehicle: saline 98 % of control | endpoint: mean survival time, dose: 50.0 mg/kg/injection, schedule: Q04DX003 (ip), vehicle: saline 96 % of control

O=c1[nH]cnc2c1ncn2C1OC(CO)C(O)C1O.O=c1[nH]cnc2c1ncn2C1OC(CO)C(O)C1O.[Cl][Pt][Cl] (stereo unspecified)
inactive: endpoint: mean survival time, dose: 12.5 mg/kg/injection, schedule: Q01DX009 (ip), vehicle: water 103 % of control | endpoint: mean survival time, dose: 25.0 mg/kg/injection, schedule: Q01DX009 (ip), vehicle: water 101 % of control | endpoint: mean survival time, dose: 50.0 mg/kg/injection, schedule: Q01DX009 (ip), vehicle: water 101 % of control | endpoint: mean survival time, dose: 100.0 mg/kg/injection, schedule: Q01DX009 (ip), vehicle: water 101 % of control | endpoint: mean survival time, dose: 200.0 mg/kg/injection, schedule: Q01DX009 (ip), vehicle: water 97 % of control

O=C(/C=C(/Nc1ccccc1)c1ccccc1)c1ccccc1
inactive: [11] 90 % of control | [12] 92 % of control | endpoint: mean survival time, dose: 400.0 mg/kg/injection, schedule: Q01DX001 (ip), vehicle: saline with Tween-80 86 % of control

COc1ccc(OC)c(NC(=O)Nc2cc([N+](=O)[O-])ccc2Cl)c1
inactive: [11] 91 % of control | [1] 93 % of control and 95 % of control | [7] 92 % of control and 95 % of control | [2] 101 % of control | [12] 88 % of control | [3] 115 % of control and 98 % of control | [8] 91 % of control and 96 % of control | [4] 96 % of control | [5] 100 % of control and 101 % of control | [9] 96 % of control and 104 % of control | [6] 96 % of control

CC1CC(C)SC(C)S1 (stereo unspecified)
inactive: endpoint: mean survival time, dose: 50.0 mg/kg/injection, schedule: Q04DX002 (ip), vehicle: saline with Tween-80 102 % of control | [7] 105 % of control | [8] 97 % of control

CCOc1ccc2c(c1)c(CC(=O)O)cn2C
inactive: [13] 98 % of control | [14] 101 % of control | [15] 98 % of control

Cn1c(=O)c(Br)cc2ccccc21
inactive: endpoint: mean survival time, dose: 100.0 mg/kg/injection, schedule: Q01DX001 (ip), vehicle: saline 102 % of control | endpoint: mean survival time, dose: 200.0 mg/kg/injection, schedule: Q01DX001 (ip), vehicle: saline 96 % of control | endpoint: mean survival time, dose: 400.0 mg/kg/injection, schedule: Q01DX001 (ip), vehicle: saline 96 % of control

Cc1nc2cc(Cl)cc([N+](=O)[O-])c2nc1C
inactive: [13] 103 % of control | [14] 97 % of control | [15] 97 % of control

CC1OCOC(C)C1C (stereo unspecified)
inactive: endpoint: mean survival time, dose: 50.0 mg/kg/injection, schedule: Q01DX005 (ip), vehicle: saline 108 % of control | [10] 91 % of control | endpoint: mean survival time, dose: 50.0 mg/kg/injection, schedule: Q04DX002 (ip), vehicle: saline + alcohol 103 % of control | endpoint: mean survival time, dose: 100.0 mg/kg/injection, schedule: Q01DX005 (ip), vehicle: saline 108 % of control | [1] 91 % of control | endpoint: mean survival time, dose: 100.0 mg/kg/injection, schedule: Q04DX002 (ip), vehicle: saline + alcohol 95 % of control | endpoint: mean survival time, dose: 200.0 mg/kg/injection, schedule: Q01DX005 (ip), vehicle: saline 108 % of control | [3] 91 % of control | endpoint: mean survival time, dose: 200.0 mg/kg/injection, schedule: Q04DX002 (ip), vehicle: saline + alcohol 88 % of control | endpoint: mean survival time, dose: 400.0 mg/kg/injection, schedule: Q01DX005 (ip), vehicle: saline 102 % of control | [5] 98 % of control | endpoint: mean survival time, dose: 400.0 mg/kg/injection, schedule: Q04DX002 (ip), vehicle: saline + alcohol 95 % of control

[Cl][Pt+2][Cl].[NH-]C(C(=O)O)c1ccccc1.[NH-]C(C(=O)O)c1ccccc1 (stereo unspecified)
inactive: endpoint: median survival time, dose: 3.12 mg/kg/injection, schedule: Q04DX003 (ip), vehicle: saline 103 % of control | endpoint: median survival time, dose: 6.25 mg/kg/injection, schedule: Q04DX003 (ip), vehicle: saline 103 % of control | endpoint: median survival time, dose: 12.5 mg/kg/injection, schedule: Q04DX003 (ip), vehicle: saline 100 % of control | endpoint: median survival time, dose: 25.0 mg/kg/injection, schedule: Q04DX003 (ip), vehicle: saline 107 % of control | endpoint: median survival time, dose: 50.0 mg/kg/injection, schedule: Q04DX003 (ip), vehicle: saline 101 % of control | endpoint: median survival time, dose: 100.0 mg/kg/injection, schedule: Q04DX003 (ip), vehicle: saline 123 % of control
